The values below come from US20260250270A1, “Compound Used as Kinase Inhibitor and Use Thereof” (TYK MEDICINES, INC., priority 2022, published 2026).

Assay [1] deals with Ba/F3-HER2-A775-G776 ins YVMA (Homo sapiens, UniProt P04626, DUP772-775, cells depend on it). The experiment in a line: Cell proliferation inhibition (CellTiter-Glo), HER2 exon 20 insertion engineered cells. The format is cell-based. To be noted: 72 h, CellTiter-Glo; read-out: IC50, Ba/F3-HER2-A775-G776ins YVMA. The protocol: (§1) The selected engineering cells Ba/F3-FL-EGFR-V769-D770 ins ASV, Ba/F3-FL-EGFR-D770-N771 ins SVD, Ba/F3-FL-EGFR-H773-V774 ins NPH, Ba/F3-FL-EGFR-A763-Y764 ins FQEA, Ba/F3-HER2-A775-G776 ins YVMA were provided by Hefei PreceDo Biomedical Technology Co., LTD and were validated prior to use in this study.
(§2) A 20× stock of the compound to be tested was prepared for use, with 9 concentrations in 3-fold gradient dilution, diluted from 1 μM.
(§3) The logarithmic growth phase cell suspension was inoculated into 96-well white cell culture plates with 95 μL volume per well (2000 cells/well). 5 μL of 20× Compound to be tested was added to the plate containing 95 μL of cell suspension according to the plate spreading diagram, and then mixed well. The plate was incubated in a 5% CO2 incubator at 37° C. for 72 h. The proliferation inhibition activity of the compounds was determined by the CellTiter-Glo method, and the fluorescence value per well, RLU, was obtained from the SpectraMax Paradigm reading. Inhibition Rate data were processed using the following formula: Inhibition Rate (Inh %)=100−(RLU compound−RLU blank)/(RLU control−RLU blank)*100%. The cell viability corresponding to different concentrations of compounds was calculated in EXCEL, and then GraphPad Prism software was used to plot the cell viability curve and calculate the IC50 value.
A general note: ATP-based viability assays read luminescence as a measure of living cells.

The target of assay [2] is Ba/F3-FL-EGFR-H773-V774 ins NPH (Homo sapiens, UniProt P00533, DUP771-773, cells depend on it). The experiment in a line: Cell proliferation inhibition (CellTiter-Glo), EGFR exon 20 insertion engineered cells. The format is cell-based. To be noted: 72 h, read-out: IC50, Ba/F3-FL-EGFR H773-V774ins NPH. The procedure: as §1, §2, §3
Ba/F3-FL-EGFR-H773-V774 ins NPH, sequence (P00533 with tags, fused parts or gaps DUP771-773): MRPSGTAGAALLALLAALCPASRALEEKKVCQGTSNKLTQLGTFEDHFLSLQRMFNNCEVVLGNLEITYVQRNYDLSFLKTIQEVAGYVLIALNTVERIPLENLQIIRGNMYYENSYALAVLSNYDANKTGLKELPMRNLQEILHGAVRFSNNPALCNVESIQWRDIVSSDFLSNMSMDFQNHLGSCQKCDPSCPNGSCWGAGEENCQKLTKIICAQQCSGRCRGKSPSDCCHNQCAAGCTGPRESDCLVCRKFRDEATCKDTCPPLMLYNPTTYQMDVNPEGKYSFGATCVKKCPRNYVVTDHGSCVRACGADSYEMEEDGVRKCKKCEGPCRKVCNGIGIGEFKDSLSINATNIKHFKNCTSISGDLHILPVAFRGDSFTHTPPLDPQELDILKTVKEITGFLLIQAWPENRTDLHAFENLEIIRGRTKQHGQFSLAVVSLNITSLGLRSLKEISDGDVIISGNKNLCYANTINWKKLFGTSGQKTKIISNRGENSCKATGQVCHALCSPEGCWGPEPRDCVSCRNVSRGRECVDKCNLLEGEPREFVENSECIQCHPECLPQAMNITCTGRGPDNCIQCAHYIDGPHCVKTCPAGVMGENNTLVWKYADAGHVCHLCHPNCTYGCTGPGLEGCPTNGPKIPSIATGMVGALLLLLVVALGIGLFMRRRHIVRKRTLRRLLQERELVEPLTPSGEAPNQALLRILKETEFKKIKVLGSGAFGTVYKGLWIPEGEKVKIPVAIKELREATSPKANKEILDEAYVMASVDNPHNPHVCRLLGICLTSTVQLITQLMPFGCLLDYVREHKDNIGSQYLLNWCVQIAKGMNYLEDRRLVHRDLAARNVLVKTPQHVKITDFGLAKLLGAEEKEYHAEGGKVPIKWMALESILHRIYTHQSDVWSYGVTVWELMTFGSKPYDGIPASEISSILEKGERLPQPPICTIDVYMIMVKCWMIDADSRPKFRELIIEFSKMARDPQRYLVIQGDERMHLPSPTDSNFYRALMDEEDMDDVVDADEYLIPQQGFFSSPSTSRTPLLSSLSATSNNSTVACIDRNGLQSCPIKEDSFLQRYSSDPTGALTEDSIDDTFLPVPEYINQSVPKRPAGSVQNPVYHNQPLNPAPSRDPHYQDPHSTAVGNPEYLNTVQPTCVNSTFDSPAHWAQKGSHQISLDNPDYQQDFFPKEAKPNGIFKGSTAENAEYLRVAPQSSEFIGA
The target of assay [3] is Ba/F3-FL-EGFR-D770-N771 ins SVD (Homo sapiens, UniProt P00533, DUP768-770, cells depend on it). Described as above. The class given is cell-based. To be noted: 72 h, read-out: IC50, Ba/F3-FL-EGFR D770-N771ins SVD. The protocol:
as §1, §2, §3

Assay [4] has as its target Ba/F3-FL-EGFR-V769-D770 ins ASV (Homo sapiens, UniProt P00533, DUP767-769, cells depend on it). Described as above. The class given is cell-based. To be noted: 72 h, read-out: IC50, Ba/F3-FL-EGFR V769-D770ins ASV. The procedure:
as §1, §2, §3

Assay [5] addresses Ba/F3-FL-EGFR-A763-Y764 ins FQEA (Homo sapiens, UniProt P00533, INS763FQEA, cells depend on it). The assay is described as above. The format is cell-based. To be noted: 72 h, read-out: IC50, Ba/F3-FL-EGFR A763-Y764ins FQEA. The protocol: as §1, §2, §3
In a further assay the test system is PC9. As to the kind of experiment: Cell proliferation inhibition (CellTiter-Glo) on cell line PC9. The format is cell-based. To be noted: Homo sapiens, PC-9. The protocol: (§4) The cell lines NCI-H1975 and PC9 selected for the experiments were provided by Sino-American Guanke Biotechnology (Beijing) Co. and were validated prior to use in this study.
(§5) A 10× stock of the compound to be tested was prepared for use, with 9 concentrations in 4-fold gradient dilution, diluted from 10 μM.
(§6) The logarithmic growth phase cell suspension was inoculated into a 96-well culture plate with 90 μL volume per well (2000 cells/well). 10 μL of 10× Compound to be tested was added to the plate according to the plate spreading diagram, and then mixed well. The plate was incubated in a 5% CO2 incubator at 37° C. The proliferation inhibitory activity of the compound was determined by the CellTiter-Glo method. Cell proliferation inhibition rate (Inhibition Rate) data were plotted using GraphPad Prism 8.0 software for cell viability curves and IC50 values were calculated.

Another assay relates to NCI-H1975. As to the kind of experiment: Cell proliferation inhibition (CellTiter-Glo) on cell line NCI-H1975. The format is cell-based. To be noted: Homo sapiens. The procedure:
as §4, §5, §6

The test system of a further assay is EGFR exon 20ins. To be noted: advanced non-small cell lung cancer; cited from earlier work.
For assay [6], the system named is Lung cancer LU0387PDX model. The experiment in a line: Pharmacodynamic study on lung cancer LU0387PDX model. To be noted: LU0387 model, 30 mg/kg, P.O, QD * 13 days. The format is in vivo, mice. An excerpt: Lung cancer LU0387PDX model is a commonly used xenograft tumor model from Crown Bioscience, the experimental situation of this model is described as follows: after euthanasia of tumor-bearing mice, the tumor blocks were dissected out in aseptic condition, the blocks were cleaned to remove blood stains and connective tissues and necrotic parts, and the tumors were cut into small pieces of 2*2*2 mm^3, and inoculated with an adapter needle in sterilized experimental mice subcutaneously on the right dorsal side. Tumor growth was regularly observed, and when the tumors grew to an average volume of 100~200 mm^3, mice were randomly grouped according to tumor size and body weight for drug administration. Before the start of drug administration, all animals were weighed and the tumor volume was measured with vernier calipers. Mice were randomly grouped according to tumor volume to ensure that tumor volumes were similar between groups. Three mice in each group were administered orally once daily, and the inoculation site was observed after administration. Tumor volume and mouse body weight were measured twice a week. The experimental design and results were shown in Table 9, wherein P.O referred to administered orally; QD: once a day; TGI (Tumor volume inhibition rate)=(1-Tumor weight of the treatment group/Tumor weight of the control group)*100%.

Assay [7] concerns exon 20 insertion mutations in EGFR and HER2. To be noted: reported clinical trial results; cited from earlier work.

Ba/F3-FL-EGFR-A763-Y764 ins FQEA, sequence (P00533 with tags, fused parts or gaps INS763FQEA): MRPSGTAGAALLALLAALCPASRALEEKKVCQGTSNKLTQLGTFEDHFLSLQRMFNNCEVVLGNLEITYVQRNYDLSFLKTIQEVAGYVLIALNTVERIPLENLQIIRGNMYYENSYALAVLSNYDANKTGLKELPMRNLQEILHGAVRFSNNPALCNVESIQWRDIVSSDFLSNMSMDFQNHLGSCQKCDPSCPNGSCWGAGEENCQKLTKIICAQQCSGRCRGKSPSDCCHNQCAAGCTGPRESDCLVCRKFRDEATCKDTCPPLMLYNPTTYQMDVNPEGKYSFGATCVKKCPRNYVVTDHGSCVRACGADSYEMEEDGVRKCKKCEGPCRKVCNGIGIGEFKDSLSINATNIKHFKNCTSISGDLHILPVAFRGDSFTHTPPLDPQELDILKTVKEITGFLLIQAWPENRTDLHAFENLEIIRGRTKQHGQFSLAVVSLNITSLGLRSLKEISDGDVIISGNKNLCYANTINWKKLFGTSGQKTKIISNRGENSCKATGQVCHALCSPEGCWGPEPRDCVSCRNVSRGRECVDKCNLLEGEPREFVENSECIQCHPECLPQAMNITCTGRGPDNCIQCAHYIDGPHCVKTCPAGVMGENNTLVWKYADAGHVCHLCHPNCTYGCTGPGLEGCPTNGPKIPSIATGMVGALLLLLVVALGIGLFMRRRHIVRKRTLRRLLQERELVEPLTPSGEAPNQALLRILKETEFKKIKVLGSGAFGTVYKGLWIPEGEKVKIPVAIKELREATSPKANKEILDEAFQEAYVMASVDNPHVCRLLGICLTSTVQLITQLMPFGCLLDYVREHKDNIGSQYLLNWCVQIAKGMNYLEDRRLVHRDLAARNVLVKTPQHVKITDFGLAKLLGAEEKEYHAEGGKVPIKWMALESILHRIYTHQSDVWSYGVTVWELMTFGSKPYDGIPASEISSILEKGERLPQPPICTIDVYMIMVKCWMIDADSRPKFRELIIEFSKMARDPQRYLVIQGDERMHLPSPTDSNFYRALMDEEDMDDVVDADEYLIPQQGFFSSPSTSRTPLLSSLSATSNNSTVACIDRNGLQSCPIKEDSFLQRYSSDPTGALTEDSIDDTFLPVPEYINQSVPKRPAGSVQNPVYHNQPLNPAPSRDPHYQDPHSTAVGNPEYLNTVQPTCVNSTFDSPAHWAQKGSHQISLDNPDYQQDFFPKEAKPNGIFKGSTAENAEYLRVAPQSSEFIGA
Ba/F3-FL-EGFR-V769-D770 ins ASV, sequence (P00533 with tags, fused parts or gaps DUP767-769): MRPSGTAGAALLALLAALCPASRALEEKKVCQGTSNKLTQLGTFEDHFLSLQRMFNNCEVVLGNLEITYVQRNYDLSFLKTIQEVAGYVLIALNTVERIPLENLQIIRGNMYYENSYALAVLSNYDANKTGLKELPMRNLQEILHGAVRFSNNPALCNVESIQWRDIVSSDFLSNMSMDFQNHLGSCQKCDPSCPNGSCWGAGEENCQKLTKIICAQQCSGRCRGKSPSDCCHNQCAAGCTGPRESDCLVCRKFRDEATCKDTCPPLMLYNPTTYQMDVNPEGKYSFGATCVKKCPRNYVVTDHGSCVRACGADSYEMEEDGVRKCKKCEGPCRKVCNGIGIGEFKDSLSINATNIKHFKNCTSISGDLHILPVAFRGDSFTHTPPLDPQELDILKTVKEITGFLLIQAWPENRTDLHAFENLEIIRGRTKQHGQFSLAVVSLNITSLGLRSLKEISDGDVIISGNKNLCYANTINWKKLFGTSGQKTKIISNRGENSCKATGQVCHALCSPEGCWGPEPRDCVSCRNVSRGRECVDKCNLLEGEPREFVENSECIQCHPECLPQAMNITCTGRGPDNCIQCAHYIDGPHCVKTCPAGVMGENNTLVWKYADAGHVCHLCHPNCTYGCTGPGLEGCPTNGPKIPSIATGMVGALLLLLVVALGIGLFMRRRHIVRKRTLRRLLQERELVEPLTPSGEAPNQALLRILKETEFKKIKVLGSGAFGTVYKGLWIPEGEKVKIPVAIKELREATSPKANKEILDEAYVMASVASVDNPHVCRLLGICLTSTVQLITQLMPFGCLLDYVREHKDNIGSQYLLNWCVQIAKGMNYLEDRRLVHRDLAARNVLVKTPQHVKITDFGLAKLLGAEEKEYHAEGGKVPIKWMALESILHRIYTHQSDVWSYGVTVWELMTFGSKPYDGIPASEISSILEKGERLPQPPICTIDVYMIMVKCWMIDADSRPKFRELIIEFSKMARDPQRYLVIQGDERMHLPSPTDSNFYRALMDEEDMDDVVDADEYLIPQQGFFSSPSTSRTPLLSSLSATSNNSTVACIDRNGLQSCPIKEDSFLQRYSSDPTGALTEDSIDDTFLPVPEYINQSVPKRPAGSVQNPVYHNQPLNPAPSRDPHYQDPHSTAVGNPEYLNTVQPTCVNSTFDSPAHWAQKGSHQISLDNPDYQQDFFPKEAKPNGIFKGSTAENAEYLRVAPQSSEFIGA
Ba/F3-FL-EGFR-D770-N771 ins SVD, sequence (P00533 with tags, fused parts or gaps DUP768-770): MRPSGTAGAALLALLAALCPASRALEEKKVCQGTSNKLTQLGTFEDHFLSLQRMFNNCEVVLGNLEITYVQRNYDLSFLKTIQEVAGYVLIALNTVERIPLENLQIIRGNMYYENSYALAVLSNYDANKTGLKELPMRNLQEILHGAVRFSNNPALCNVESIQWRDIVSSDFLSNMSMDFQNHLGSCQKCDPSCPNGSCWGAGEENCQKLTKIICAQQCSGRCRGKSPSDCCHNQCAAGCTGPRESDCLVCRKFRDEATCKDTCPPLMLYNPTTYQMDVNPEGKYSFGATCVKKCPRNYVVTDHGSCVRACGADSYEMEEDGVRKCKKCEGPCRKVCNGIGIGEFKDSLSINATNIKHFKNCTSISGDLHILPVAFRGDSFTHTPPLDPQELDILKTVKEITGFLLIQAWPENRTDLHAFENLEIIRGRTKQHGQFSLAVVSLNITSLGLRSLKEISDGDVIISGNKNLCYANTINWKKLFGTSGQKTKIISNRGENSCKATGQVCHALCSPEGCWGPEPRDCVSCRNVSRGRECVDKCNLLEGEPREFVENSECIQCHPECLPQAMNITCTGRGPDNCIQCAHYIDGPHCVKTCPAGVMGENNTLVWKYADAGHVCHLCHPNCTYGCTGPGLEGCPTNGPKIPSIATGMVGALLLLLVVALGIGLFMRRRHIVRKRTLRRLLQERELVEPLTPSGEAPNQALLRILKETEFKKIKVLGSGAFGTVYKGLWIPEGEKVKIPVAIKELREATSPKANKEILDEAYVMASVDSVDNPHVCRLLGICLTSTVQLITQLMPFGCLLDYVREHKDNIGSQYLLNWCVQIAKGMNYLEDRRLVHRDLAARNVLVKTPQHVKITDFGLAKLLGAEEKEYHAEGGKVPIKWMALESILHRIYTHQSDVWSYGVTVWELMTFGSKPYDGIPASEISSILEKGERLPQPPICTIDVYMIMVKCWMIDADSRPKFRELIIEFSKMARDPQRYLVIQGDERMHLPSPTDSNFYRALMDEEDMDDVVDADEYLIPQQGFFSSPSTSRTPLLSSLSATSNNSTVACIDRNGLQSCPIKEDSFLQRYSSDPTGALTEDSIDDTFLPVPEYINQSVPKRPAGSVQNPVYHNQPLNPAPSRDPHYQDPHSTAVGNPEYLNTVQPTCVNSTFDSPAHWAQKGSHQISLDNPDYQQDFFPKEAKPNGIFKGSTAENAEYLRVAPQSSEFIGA

Regarding `C=CC(=O)Nc1cc(Nc2nccc(Nc3cc(Cl)c(F)cc3C(C)(C)O)n2)c(OC)cc1N1CC[C@@H](N(C)C)C1` [DZD9008, reference compound], the GI50 was 30 to 100 nM in [1]; 30 to 100 nM in assay [2]; 30 to 100 nM in [3]; no more than 30 nM in [4]; no more than 30 nM in [5]. The IC50 was 30 to 100 nM with PC9 and no more than 30 nM in the assay with NCI-H1975. Moreover, in the assay with EGFR exon 20ins, the objective remission rate was 40%. For the same compound, the “TGI (%)” value in assay [6] is 32.55%.
As to `C=CC(=O)Nc1cc(Nc2ncc(C(=O)OC(C)C)c(-c3cn(C)c4ccccc34)n2)c(OC)cc1N(C)CCN(C)C` [TAK-788, reference compound], the GI50 in [1], in assay [2], in assay [3], in assay [4] and in assay [5] was no more than 30 nM throughout. Besides, the IC50 in the assay with PC9 and in the assay on NCI-H1975 was no more than 30 nM throughout. Also, in [6], the “TGI (%)” value is listed as 68.03%. Besides, in assay [7], the objective remission rate is recorded as 43%.

Broadly, the IC50 is the midpoint of a concentration-inhibition curve. The low end stands for greater potency, the high end for weaker potency.
